The source of these data is PubChem BioAssay (NCI).

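Growth conditions: 96-well plates. Treatment: test compound, 48 hours, 5 concentrations. Analysis: linear interpolation between bracketing concentrations; unreached endpoints set to highest concentration. GI50: concentration for 50% inhibition of growth. Definition used: TGI = concentration required for complete inhibition of growth.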 *1 amine or outer side, *2 acyl side, *3 side chain or, on linkers, in order; H or OH if unused. Where a SMILES comes first, the peptide text is derived from it. [ ]: non-standard residue; d: D form. The star is where a group is joined. ξ: configuration not given here. X15 = CCN(CC)c1ccc2cc(N*)c(=O)oc2c1; dIva = CC[C@@](C)(N)C(=O)O; X14 = O=C(OCCN[*:1])[*:2]; Aib = CC(C)(N)C(=O)O; ξP = O=C(O)C1CCCN1; βAla = NCCC(=O)O Bounds are passed on as bounds.

This assay has as its system MDA-MB-468 breast. Briefly: NCI tumour cell line growth inhibition, 48 h.
Turning to `C=C1CCC2C3(C)COC(c4ccccc4Br)OC3CCC2(C)C1C/C=C1/C(=O)OCC1OC(C)=O` (centres undefined), the GI50 was 1.2 µM and the TGI is 2.82 µM. The corresponding values for `O=C(OCCBr)c1ccc(Cl)c([N+](=O)[O-])c1` are 1.9 µM and 4.09 µM. The corresponding values for `CN(C)c1ccc(C(=C2C=CC(=[N+](C)C)C=C2)c2ccc(N(C)C)cc2)cc1` are 0.12 µM and 0.43 µM. In the case of `CCN(CC)c1ccc(C(=N)c2ccc(N(C)C)cc2)cc1`, the GI50 is 0.113 µM and the TGI came to 2.25 µM. In the case of `CC1(C)CC[C@]2(C(=O)N3CCOCC3)CC[C@]3(C)C(=CC[C@@H]4[C@@]5(C)C/C(=C/c6ccncc6)C(=O)C(C)(C)[C@@H]5CC[C@]43C)[C@@H]2C1`, the GI50 is 0.712 µM and the TGI was > 100 µM.

As to `Nc1n[nH]c2cccc(C#Cc3cccc(C(=O)Nc4cc(CN5CCOCC5)cc(C(F)(F)F)c4)c3)c12`, the GI50 is 3.47 µM and the TGI came out at 12.9 µM. The corresponding values for `CN(C)CC1CCCCCC(CN(C)C)C1=O` (centres undefined) are 0.502 µM and 2.54 µM. In the case of `FC(F)(F)c1ccc(-c2cnc(Cl)nc2NCc2cc(C(F)(F)F)cc(C(F)(F)F)c2)cc1`, the GI50 is 2.06 µM and the TGI worked out at 9.15 µM. The corresponding values for `CCN(CC)c1ccc2cc(NC(=O)OCCNC(=O)CCNC(=O)[C@H](CC(C)C)NC(=O)C(C)(C)NC(=O)C(C)(C)NC(=O)[C@H](CC(C)C)NC(=O)CCNC(=O)C(C)(C)NC(=O)[C@H](CC(C)C)NC(=O)CCNC(=O)[C@@](C)(CC)NC(=O)[C@H](C)NC(=O)CCNC(=O)C(C)(C)NC(=O)[C@H](C)NC(=O)[C@@H]3CCCN3C(=O)[C@@](C)(CC)NC(=O)[C@H](Cc3ccccc3)NC(=O)C3CCCN3C(=O)C(C)(C)NC(=O)C3CCCN3C(=O)C(C)(C)NC(C)=O)c(=O)oc2c1` (some centres undefined) (Ac-[Aib][ξP][Aib][ξP]F[dIva]PA[Aib][βAla]A[dIva][βAla]L[Aib][βAla]L[Aib][Aib]L[βAla][X14]-X15) are 0.00277 µM and 0.00774 µM.

In the case of `Nc1ccc(-c2ccc(N)cc2I)c(I)c1`, the GI50 is 5.93 µM and the TGI was found to be 44.9 µM. For the compound `CCN1C(=O)N(CC)C2C1NN=c1s/c(=C\c3cc4ccccc4[nH]3)c(=O)n12` (centres undefined), the GI50 is < 0.01 µM and the TGI turned out to be 8.52 µM. Turning to `C[C@]12CCc3sc(Nc4ccc(O)cc4)nc3C1=CC[C@@H]1[C@@H]2CC[C@]2(C)C(=O)CC[C@@H]12`, the GI50 was 2.17 µM and the TGI stood at 5.8 µM.

Take `CCOc1ccccc1/C=N\N=C(\N)N/N=C/c1ccccc1OCC`: the GI50 is 1.72 µM and the TGI was found to be 8.48 µM.

For `O=C(COc1cccc(/C=C2\COc3ccc(Cl)cc3C2=O)c1)c1ccc(Cl)cc1`, the GI50 was 2.82 µM and the TGI worked out at 9.26 µM.

With `COc1cc(C(=O)/C=C/c2cccnc2Nc2ccccc2)cc(OC)c1OC`, the GI50 is 0.665 µM and the TGI was 2.1 µM. The corresponding values for `Nc1nc(N)c(N=O)c(OCC2CCCCC2)n1` are 15.2 µM and 52.9 µM.

Turning to `CS(=O)(=O)Nc1ccc(N=Cc2c(O)[nH]c3ccccc23)cc1`, the GI50 was > 25 µM and the TGI was > 25 µM. For the compound `O=C(CN1CCN(c2ccccc2)CC1)N1CCN(c2nnc(-c3ccc(Cl)cc3)c(-c3ccc(Cl)cc3)n2)CC1`, the GI50 is 18.9 µM and the TGI amounted to 95.3 µM.

For the compound `O=C(c1cccnc1)c1cc(-c2ccccn2)c(=O)n2ccccc12`, the GI50 is > 100 µM and the TGI is > 100 µM. On to `CCNCCNc1cc(C2CCCCC2)c(C#N)c2nc3ccccc3n12`, for which the GI50 is 0.751 µM and the TGI worked out at 2.1 µM.

As to `O=C(N/N=C/c1cc([N+](=O)[O-])ccc1O)c1cccc2ccccc12`, the GI50 was 1.52 µM and the TGI stood at 4.74 µM. Regarding `COc1cc(C2C3=C(COC3=O)Nc3cc4c(cc32)CCC4)cc2c1OCO2` (centres undefined), the GI50 is 0.0281 µM and the TGI stood at 0.147 µM. The corresponding values for `O=C(CCCSc1nc(-c2ccccc2)cc(-c2ccc(Cl)cc2)n1)NO` are 1.58 µM and 3.89 µM. The corresponding values for `CC(C)c1ccc(Nc2nccc(-c3cnn4ncccc34)n2)cc1` are 0.271 µM and 0.833 µM.

For the compound `Nc1c(C(=O)Nc2ccccc2)sc2nc3c(cc12)CN(Cc1ccccc1)CC3`, the GI50 is 17 µM and the TGI was > 100 µM. For `OCC1OC(n2cnc3c(=S)nc[nH]c32)C(O)C1O` (centres undefined), the GI50 is 0.631 µM and the TGI is > 100 µM. The corresponding values for `CCCOc1nc(SCCC)nc2c1cnn2-c1ccccc1` are > 100 µM and > 100 µM. The corresponding values for `COc1ccc(-c2nn(-c3cccc(Cl)c3)cc2-c2cc(-c3ccccc3)nc(N)n2)cc1` are 1.72 µM and 3.59 µM. The corresponding values for `CCCCNC(=O)NS(=O)(=O)c1ccc(N2N=C(c3cc(C)ccc3C)CC2c2cc(OC)c(OC)c(OC)c2)cc1` (centres undefined) are 2.17 µM and 5.35 µM.

On to `CC1(C)CC[C@]23CC[C@]4(C)[C@H](CC[C@@H]5[C@@]6(C)CC[C@H](NCO)C(C)(C)[C@@H]6CC[C@]54C)[C@H]2[C@H]1OC3`, for which the GI50 is 1.85 µM and the TGI is 3.71 µM. The corresponding values for `CCCCN(CCCC)c1ccc(C(=NC(C)CCCN(CC)CC)c2ccc(N(C)C)cc2)cc1` (centres undefined) are 0.795 µM and 1.67 µM. `CCCCCCCOc1c(OC)cc(C2CC(=O)Nc3c2c(C)nn3-c2nc3ccccc3[nH]2)cc1OC` (centres undefined): the GI50 is 2.45 µM and the TGI turned out to be 7.12 µM. As for `Cn1ccnc1C(=O)/C=C/c1ccc(CC(=O)Nc2ccc(C(F)(F)F)cc2)cc1`, the GI50 is 2.09 µM and the TGI was 4.66 µM. The corresponding values for `COc1cc(C2CC(c3ccc(N(C)C)cc3)=NN2C(C)=O)cc(OC)c1OC` (centres undefined) are 1.72 µM and > 100 µM.

In the case of `CC(C)(C#N)c1cc(C(=O)Nc2cc(Nc3ncccc3-c3ncnc4nc[nH]c34)ccc2F)cc(C(F)(F)F)c1`, the TGI was > 4.09 µM.

`COCCNc1cc(NC(=O)N2CCCc3cc(CN4CCN(C)CC4=O)c(C=O)nc32)ncc1C#N`: the GI50 was 26.5 µM and the TGI was > 50 µM. The corresponding values for `CC(=O)O[C@H]1CC[C@@]2(C)[C@@H](CC[C@@H]3[C@@H]2CC[C@]2(C)C=C(C=O)C[C@@H]32)C1` are 15.5 µM and 38.2 µM.

Regarding `CN1CCN(Cc2ccc(NC(=O)c3cncc(C#Cc4cnc5ccc(OCC(F)F)nn45)c3)cc2C(F)(F)F)CC1`, the GI50 was 0.428 µM and the TGI stood at 1.33 µM. The corresponding values for `Cc1[nH]c2ccccc2c1CCNCc1ccc(/C=C/C(=O)NO)cc1` are < 0.01 µM and 0.14 µM. With `Nc1n[nH]c2ccc([C@@H]3Nc4ccc5[nH]ncc5c4[C@H]4C5C=CC(C5)[C@@H]34)cc12` (some centres undefined), the GI50 was 0.329 µM and the TGI was found to be 16 µM.
